Results as given in patent US20240336679A1, “METHODS FOR THE TREATMENT OF CANCER” (INSTITUT REGIONAL DU CANCER DE MONTPELLIER, priority 2021, published 2024).
Where a name gives a salt, the structure may show the parent alone.

Columns and labels:
[1] = tested on: PHGDH, PSAT1 and PSPH mRNA in C2C12 myoblasts cocultured with IB115 liposarcoma cells; experiment: Anti-IL-6 assay: RT-qPCR of serine synthesis genes in C2C12 myoblasts cocultured with IB115 cells treated with IL-6 signaling inhibitors; assay type: cell-based, mouse; conditions: FIG. 11; for IL-6 dependent enhancement of the serine synthesis way (PHGDH, PSAT, PSPH mRNA): C2C12 myoblasts cocultured with IB115; for PSPH relative mRNA level: co-culture myoblasts with LPS, without inhibitors about 3.1; for PHGDH relative mRNA level / PSAT1 relative mRNA level: co-culture myocytes with LPS; for PHGDH relative mRNA level: without inhibitors 1.6; for PSAT1 relative mRNA level: without inhibitors about 2
Experimental: (§1) Total mRNAs were isolated from myoblasts (C2C12 cells) using TRIzol Reagent (Invitrogen) as previously described (Riscal et al. Mol Cell. 2016 Jun. 16; 62 (6): 890-902). Afterwards, Reverse Transcription of 1 μg mRNA into cDNA was performed using SuperScript III Reverse Transcriptase (Invitrogen), according to the manufacturer protocol. Quantification of the produced cDNA was achieve by Real-time quantitative PCRs on a LightCycler 480 SW 1.5 apparatus (Roche) using SYBR Green mix (Ozyme) plus the oligonucleotides of interest, and the following amplification protocol: 45 cycles of 95° C. for 4 s, 60° C. for 10 s, and 72° C. for 15 s. Analysis of the relative gene expression (mRNA copy number) was realized using Ct values and the 2^−ΔCt method, normalized on at least two different housekeeping genes (TBP, Tubuline, RPL13a, Gus B, β-microglobuline).
Relative quantities of mRNA of MDM2 direct target genes PHGDH, PSAT1 and PSPH were determined by RT-qPCR in C2C12 cells culture alone or in coculture with IB115 cells treated or not with a blocking anti-IL-6 antibody (Wijdenes et al., Mol Immunol, 28 (1991), p. 1183),i.e., IL-6 receptor inhibitor such as Bazedoxifène, or STAT3 inhibitors such as C188-9 and Stattic (mean+/−SD; n=3 independent experiments). Statistical significance was evaluated using non-parametric Mann-Whitney U tests.

[2] = tested on: PHGDH, PSAT1 and PSPH mRNA in C2C12 myoblasts cocultured with IB115 liposarcoma cells; experiment: shRNA assay: RT-qPCR of serine synthesis genes in C2C12 myoblasts cocultured with IB115 cells depleted of human IL-6; assay type: cell-based, mouse; conditions: FIG. 4, myocytes cultured with LPS (IB115) and treated with shIL-6
Experimental: as §1
Relative quantities of mRNA of MDM2 direct target genes PHGDH, PSAT1 and PSPH were determined by RT qPCR in C2C12 myoblasts cultured alone or in coculture with IB115 cells treated or not for shRNA mediated depletion of human IL-6 (shIL-6). Data were normalized to the corresponding control samples prepared from IB115 cells treated with a control shRNA (mean SD n=3 independent experiments) Statistical significance was evaluated using non parametric Mann Whitney U tests.

[3] = tested on: XG-6 cells; experiment: Growth of IL-6 dependent cell line XG-6; assay type: cell-based; conditions: FIG. 3; RPMI, 2 ng/ml, 3 days; no growth without IL-6
Experimental: 50 000 XG-6 cells (IL-6 dependent cell line) were seeded in an equal number in four plastic dishes and cultured in suspension in 2 ml of RPMI (Gibco) medium at 37° C./5% CO2 for 3 days. The fourth dishes' conditions are as follows: • XG-6 cells cultured in 2 ml of RPMI in the presence of 2 ng/ml of recombinant IL-6 (obtained with the method illustrated in Wijdenes et al., Mol Immunol, 28 (1991), p. 1183) • XG-6 cells cultured in 2 ml of RPMI, • XG-6 cells cultured in 2 ml of MCF7 cell lines supernatant as previously obtained, • XG-6 cells cultured in 2 ml of IB115 cell lines supernatant as previously obtained.

[4] = tested on: cancer cells exhibiting recruitment of MDM2 to chromatin (C-MDM2 (+)); experiment: Cell viability / IC50 measurement (SRB assay) upon SP141 treatment; assay type: cell-based, human; conditions: FIG. 8; as soon as 24 hours after treatment with low concentrations
Experimental: Cell survival after SP141, IL-6, IL-6 inhibitor and/or serine/glycine deprived diet treatment (IC50) was determined using the Sulforhodamine B assay (SRB assay). Cells were seeded in 96-well plates (Sarsted) in complete DMEM medium as to obtain triplicates for each conditions (5 000 cells/well). After 24 h, serial dilutions of the indicated compounds were added to the cells. […] Fixed SRB was finally dissolved in 10 mM Tris-HCl solution and 560 nm absorbance was read using a PHERAstar FSX plate reader.

COc1ccc(S(=O)(=O)Nc2cc(-c3c(O)ccc4ccccc34)c(O)c3ccccc23)cc1 [C188-9]
IL-6 dependent enhancement of the serine synthesis way (PHGDH, PSAT, PSPH mRNA) ([1]; 10 nM): decreases
PSPH relative mRNA level ([1]; 10 nM): about 1.5 A.U
PHGDH relative mRNA level ([1]; 10 nM): about 0.5 A.U
PSAT1 relative mRNA level ([1]; 10 nM): about 1.3 A.U

Cc1c(-c2ccc(O)cc2)n(Cc2ccc(OCCN3CCCCCC3)cc2)c2ccc(O)cc12 [BZA, 1-[[4-[2-(Hexahydro-1H-azepin-1-yl)ethoxy]phenyl]methyl]-2-(4-hydroxyphenyl)-3-methyl-1H-indol-5-ol monoacetate (salt)]
PSPH relative mRNA level ([1]; 100 nM): about 1.8 A.U
PHGDH relative mRNA level ([1]; 100 nM): about 0.6 A.U
PSAT1 relative mRNA level ([1]; 100 nM): about 1.3 A.U

shIL-6: shRNA to inactivate human IL-6 expression; a sequence may be 5′-GACACTATTTTAATTATTTTTAA-3′ (shRNA, chemistry and expression mode not given here, further chemistry not given here)
relative mRNA level of PSAT ([2]; myocytes alone about 1, with LPS about 1.75): about 1 AU
relative mRNA level of PSPH ([2]; myocytes alone about 1, with LPS about 2.5): about 1 AU
relative mRNA level of PHGDH ([2]; myocytes alone about 1, with LPS about 4.4): about 1.75 AU

recombinant IL-6: recombinant IL-6 obtained with the method of Wijdenes et al.; positive control for XG-6 growth
Quantity of XG-6 cells [3]: more than 150000 AU

COc1ccc2[nH]c3c(-c4cccc5ccccc45)nccc3c2c1 [SP141]
cell viability of cancer cells C-MDM2 (+) [4]: important loss of cell viability

O=[N+]([O-])c1ccc2c(c1)S(=O)(=O)C=C2 [Stattic]
IL-6 dependent enhancement of the serine synthesis way (PHGDH, PSAT, PSPH mRNA) ([1]; 10 nM): decreases
PSPH relative mRNA level ([1]; 10 nM): about 1.75 A.U
PSAT1 relative mRNA level ([1]; 10 nM): ~1.5 A.U
